{"source": "patent US20230167068A1", "about": "“BENZOPYRAZOLE COMPOUND” (MEDSHINE DISCOVERY INC., priority 2019, published 2023)", "key": {"[1]": {"system": "hMMP-1 promoter reporter gene in Hela cells (GR transcription repression)", "experiment": "hMMP1 transcription repression activity, luciferase reporter gene screening system (hMMP1 GR transcription repression test)", "assay_type": "cell-based", "conditions": "Homo sapiens; for Emax: HeLa, maximum effect value, positive control 1000 nM dexamethasone, read-out: TR (hMMP1 transcription inhibition activity) Effect; for IC50: absolute IC50, HeLa hMMP-1/luciferase cells, 10 nM PMA, 18 h, max concentration 1000 nM, read-out: TR (hMMP1 transcription inhibition activity) IC50", "from_the_text": "Human MMP-1 promoter region (containing two AP-1 binding sites and two PEA3 sites, a total of 249bp, GenBank catalog #AF023338) was cloned into the upstream of luciferase reporter gene. The hMMP-1 promoter reporter gene was constructed and transfected into Hela cells so that luciferase production could be easily detected. A stable recombinant hMMP-⅟luciferase cell line was used for the development and validation of this experiment.\n• [0377] 1) All the culture media were carefully aspirated, and the cell layer was rinsed gently with an appropriate amount of DPBS, and then aspirated. • [0378] 2) An appropriate amount of 0.05% Typsine EDTA was added and incubated in a CO2 incubator for 3-5 minutes to digest the cells. • [0379] 3) The cells were resuspended with an appropriate amount of cell culture medium. • [0380] 4) The required amount of cells were calculated. The cell concentration was 5x10^3 cells/well. • [0381] 5) The cell suspension was diluted with appropriate cell culture medium. • [0382] 6) The cell suspension was dispensed into a disposable sterile loading slot. • [0383] 7) Inoculated 30µL per well into a 384-well plate. • [0384] 8) The cell plate was placed in a 37° C. 5% CO2 incubator for 18-24 hours.\nThe final DMSO concentration was 0.1%. PMA needs to be protected from light during use.\nhMMP1 GR transcription repression activity test • [0395] 1) Inoculated cells: Fresh cells were inoculated into 384 white experimental plates at 5x10^3 cells/30µL/well, and incubated in a 5% CO2 incubator at 37° C. for 24 hours. • [0396] 2) Compound preparation: The compound plate was prepared before the experiment, and the reference compound (dexamethasone) and the tested compound of 10x concentration were prepared. Finally, the experimental plate of 10× concentration compound was obtained. • [0397] 3) Added compound: 3.3 µL of 10x compound was transferred with Bravo and added to cell plate. Incubated for 18 hours in a 5% CO2 incubator at 37° C. • [0398] 4) 30 µL of Bright-Glo fluorescent detection reagent was transferred to the cell plate. • [0399] 5) Centrifugal incubation for 2 minutes. • [0400] 6) The fluorescence value was measured with the Envision plate reader.\nPositive Control: 10 nM PMA + 1000 nM dexamethasone (0.1% DMSO)\nNegative control: 10 nM PMA (0.1% DMSO)\n(§1) Test compound: Maximum concentration of 1000 nM, 4-fold dilution, 10 wells in total, repeated.\n(§2) Dexamethasone: Maximum concentration of 1000 nM, 4-fold dilution, 10 wells in total, repeated.\nThe graphing software GraphPad Prism5 was used to create the concentration curves of the test compounds and calculate the IC50 values."}, "[2]": {"system": "MMTV promoter luciferase reporter in HeLa cell line (GR transcription activation)", "experiment": "MMTV transcription activation activity, luciferase reporter gene screening system (MMTV_GR transcription activation experiment)", "assay_type": "cell-based", "conditions": "Homo sapiens; for Emax: HeLa, maximum effect value, positive control 1000 nM dexamethasone, read-out: TA (MMTV transcription activation activity) Effect; for EC50: absolute EC50, HeLa MMTV-luciferase cells, 18 h, max concentration 1000 nM, read-out: TA (MMTV transcription activation activity) EC50", "from_the_text": "The promoter of mouse mammary tumor virus (MMTV) contains specific binding sites for activating GRs (GREs). To determine the activity of the compounds, a reporter gene (luciferase) was inserted after the MMTV promoter, and this construct was expressed in a stable manner in the genome of the HeLa cell line. MMTV promoter was activated by the test compounds to induce the expression of luciferase, and its activity was detected by luminescence measurement.\n• [0442] 1) All the culture media were carefully aspirated, the cell layer was rinsed gently with an appropriate amount of DPBS, and then aspirated. • [0443] 2) An appropriate amount of 0.05% Typsine EDTA was added and incubated in a CO2 incubator for 3-5 minutes to digest the cells. • [0444] 3) The cells were resuspended with an appropriate amount of cell culture medium. • [0445] 4) The amount of cells required was calculated, and the cell concentration was 4×10^3 cells/well. • [0446] 5) The cell suspension was diluted with appropriate cell culture medium. • [0447] 6) Cell suspension was dispensed into a disposable sterile loading slot. • [0448] 7) Inoculated 30 µL per well into a 384-well plate. • [0449] 8) The cell plate was placed in a 37° C. 5% CO2 incubator for 18-24 hours.\nCompounds were diluted with DMSO to 1 mM, 0.25 mM, 0.0625 mM, 0.015625 mM, 0.0039 mM, 0.0009765 mM, 0.000244 mM, 0.000061 mM, 0.00001526 mM and 0.0000038125 mM, then diluted 25-fold with serum culture medium treated with activated carbon, and finally 4x concentration compound experimental plate was obtained, prepared before use.\nThe final DMSO experimental concentration was 0.1%.\nMMTV_GR transcription activation activity experiment • [0458] 1) Inoculated cells: Fresh cells were inoculated into 384 white transparent bottom experimental plates at 4×10^3 cells/30 µL/well, and incubated at 37° C. 5% CO2 incubator for 24 hours. • [0459] 2) Compound preparation: The compound plate was prepared before the experiment, and the reference compound (dexamethasone) and the test compound of 4x concentration were prepared. Finally, the experimental plate of 4x concentration compound was obtained. • [0460] 3) Added compound: 10 µL of 4x compound was transferred with Bravo and added to cell plate. Incubated for 18 hours in a 37° C. 5% CO2 incubator. • [0461] 4) 30 µL of Bright-Glo fluorescent detection reagent was transferred to the cell plate. • [0462] 5) Centrifugal incubation for 2 minutes. • [0463] 6) The fluorescence value was measured with the Envision plate reader.\nPositive control: 1000 nM dexamethasone (0.1% DMSO)\nNegative control: 0.1% DMSO\nas §1, §2\nThe graphing software GraphPad Prism5 was used to create the concentration curves of the tested compounds and calculate the IC50 values."}}}
{"smiles": "CC(C)[C@H](NC(=O)C(C)(F)F)[C@H](Oc1ccc2c(cnn2-c2cnn(C)c2)c1)c1ccccc1", "note": "[WX045]", "values": [{"measurement": "Emax", "setting": "[1]", "value": 73.6, "unit": "%"}, {"measurement": "IC50", "setting": "[1]", "value": 6.74, "unit": "nM"}, {"measurement": "Emax", "setting": "[2]", "value": 55.6, "unit": "%"}, {"measurement": "EC50", "setting": "[2]", "value": 12.9, "unit": "nM"}]}
{"smiles": "Cc1nnc2ccc(-n3ncc4cc(O[C@H](c5cc(F)cc(F)c5)[C@H](C)NC(=O)C(C)(F)F)ccc43)cn12", "note": "[WX037]", "values": [{"measurement": "Emax", "setting": "[1]", "value": 87.8, "unit": "%"}, {"measurement": "IC50", "setting": "[1]", "value": 5.66, "unit": "nM"}, {"measurement": "Emax", "setting": "[2]", "value": 73, "unit": "%"}, {"measurement": "EC50", "setting": "[2]", "value": 12.6, "unit": "nM"}]}
{"smiles": "C[C@H](NC(=O)C(C)(F)F)[C@H](Oc1ccc2c(cnn2-c2ccn3cnnc3c2)c1)c1cc(F)cc(F)c1", "note": "[WX029]", "values": [{"measurement": "Emax", "setting": "[1]", "value": 93.8, "unit": "%"}, {"measurement": "IC50", "setting": "[1]", "value": 13.9, "unit": "nM"}, {"measurement": "Emax", "setting": "[2]", "value": 62.9, "unit": "%"}, {"measurement": "EC50", "setting": "[2]", "value": 21.4, "unit": "nM"}]}
{"smiles": "CC(C)[C@H](NC(=O)C(C)(F)F)[C@H](Oc1ccc2c(cnn2-c2ccc3ncccc3c2)c1)c1ccccc1", "note": "[WX007]", "values": [{"measurement": "Emax", "setting": "[1]", "value": 63.6, "unit": "%"}, {"measurement": "IC50", "setting": "[1]", "value": 121, "unit": "nM"}]}
{"smiles": "CC(C)[C@H](NC(=O)C(C)(F)F)[C@H](Oc1ccc2c(cnn2-c2ccc3nn(C)c(=O)n3c2)c1)c1ccccc1", "note": "[WX032]", "values": [{"measurement": "Emax", "setting": "[1]", "value": 57.4, "unit": "%"}, {"measurement": "IC50", "setting": "[1]", "value": 56.6, "unit": "nM"}]}
{"smiles": "C[C@H](NC(=O)C(C)(F)F)[C@H](Oc1ccc2c(cnn2-c2cscn2)c1)c1ccccc1", "note": "[WX052]", "values": [{"measurement": "Emax", "setting": "[1]", "value": 92.5, "unit": "%"}, {"measurement": "IC50", "setting": "[1]", "value": 0.97, "unit": "nM"}, {"measurement": "Emax", "setting": "[2]", "value": 57.8, "unit": "%"}, {"measurement": "EC50", "setting": "[2]", "value": 3.37, "unit": "nM"}]}
{"smiles": "C[C@H](NC(=O)C(C)(F)F)[C@H](Oc1ccc2c(cnn2-c2ccc3[nH]c(=O)oc3c2)c1)c1cc(F)cc(F)c1", "note": "[WX036]", "values": [{"measurement": "Emax", "setting": "[1]", "value": 92.8, "unit": "%"}, {"measurement": "IC50", "setting": "[1]", "value": 0.905, "unit": "nM"}, {"measurement": "Emax", "setting": "[2]", "value": 80.1, "unit": "%"}, {"measurement": "EC50", "setting": "[2]", "value": 2.31, "unit": "nM"}]}
{"smiles": "CC(C)[C@H](NC(=O)C(C)(F)F)[C@H](Oc1ccc2c(cnn2-c2ccc3noc(=O)n3c2)c1)c1ccccc1", "note": "[WX033]", "values": [{"measurement": "Emax", "setting": "[1]", "value": 71.8, "unit": "%"}, {"measurement": "IC50", "setting": "[1]", "value": 11.6, "unit": "nM"}]}
{"smiles": "CC(C)[C@H](NC(=O)C(C)(F)F)[C@H](Oc1ccc2c(cnn2-c2ccc3c(c2)CCCO3)c1)c1ccccc1", "note": "[WX006]", "values": [{"measurement": "Emax", "setting": "[1]", "value": 73, "unit": "%"}, {"measurement": "IC50", "setting": "[1]", "value": 79.2, "unit": "nM"}]}
{"smiles": "CC(C)[C@H](NC(=O)C(C)(F)F)[C@H](Oc1ccc2c(cnn2-c2ccc3nnnn3c2)c1)c1ccccc1", "note": "[WX024]", "values": [{"measurement": "Emax", "setting": "[1]", "value": 54.5, "unit": "%"}, {"measurement": "IC50", "setting": "[1]", "value": 32.5, "unit": "nM"}, {"measurement": "Emax", "setting": "[2]", "value": 31.5, "unit": "%"}, {"measurement": "EC50", "setting": "[2]", "value": 78.2, "unit": "nM"}]}
{"smiles": "CC(C)[C@H](NC(=O)C(C)(F)F)[C@H](Oc1ccc2c(cnn2-c2cnn(C)c2)c1)c1cc(F)cc(F)c1", "note": "[WX042]", "values": [{"measurement": "Emax", "setting": "[1]", "value": 89, "unit": "%"}, {"measurement": "IC50", "setting": "[1]", "value": 1.38, "unit": "nM"}, {"measurement": "Emax", "setting": "[2]", "value": 43.5, "unit": "%"}, {"measurement": "EC50", "setting": "[2]", "value": 3.06, "unit": "nM"}]}
{"smiles": "CC(C)[C@H](NC(=O)C(C)(F)F)[C@H](Oc1ccc2c(cnn2-c2ccc3n[nH]c(=O)n3c2)c1)c1ccccc1", "note": "[WX031]", "values": [{"measurement": "Emax", "setting": "[1]", "value": 54.4, "unit": "%"}, {"measurement": "IC50", "setting": "[1]", "value": 42.7, "unit": "nM"}]}
{"smiles": "C[C@H](NC(=O)C(C)(F)F)[C@H](Oc1ccc2c(cnn2-c2ccc3nccn3c2)c1)c1ccccc1", "note": "[WX012]", "values": [{"measurement": "Emax", "setting": "[2]", "value": 103, "unit": "%"}, {"measurement": "EC50", "setting": "[2]", "value": 0.019, "unit": "nM"}]}
{"smiles": "CC(C)[C@H](NC(=O)C(C)(F)F)[C@H](Oc1ccc2c(cnn2-c2ccc3c(c2)OCO3)c1)c1ccccc1", "note": "[WX008]", "values": [{"measurement": "Emax", "setting": "[1]", "value": 91.4, "unit": "%"}, {"measurement": "IC50", "setting": "[1]", "value": 58.9, "unit": "nM"}]}
{"smiles": "CC(C)[C@H](NC(=O)C(C)(F)F)[C@H](Oc1ccc2c(cnn2-c2cnc3cnccn23)c1)c1ccccc1", "note": "[WX027]", "values": [{"measurement": "Emax", "setting": "[1]", "value": 79, "unit": "%"}, {"measurement": "IC50", "setting": "[1]", "value": 70.6, "unit": "nM"}]}
{"smiles": "CC(C)[C@H](NC(=O)C(C)(F)F)[C@H](Oc1ccc2c(cnn2-c2cn3cnnc3cn2)c1)c1ccccc1", "note": "[WX025]", "values": [{"measurement": "Emax", "setting": "[1]", "value": 76.1, "unit": "%"}, {"measurement": "IC50", "setting": "[1]", "value": 28.4, "unit": "nM"}]}
{"smiles": "CC(C)[C@H](NC(=O)C(C)(F)F)[C@H](Oc1ccc2c(cnn2-c2ccc3c(c2)CCO3)c1)c1ccccc1", "note": "[WX005]", "values": [{"measurement": "Emax", "setting": "[1]", "value": 70.7, "unit": "%"}, {"measurement": "IC50", "setting": "[1]", "value": 6.75, "unit": "nM"}]}
